For experiment [1], the target named is T1, IRE1α (Homo sapiens, UniProt O75460).
T1 construct: purchased Signal Chem E31-11G
Description: Biochemical assay: inhibition of RNase activity of IRE1α. The note with it: enzyme 0.325 nM, substrate 100 nM, 20 minutes. The method in brief: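 RNase cleavage monitored as dequenching of a 5′ Alexa Fluor 647/3′ quencher RNA oligo (100 nM), stopped with 5 M urea after 20 min at room temperature. Enzyme 0.325 nM, preceded by 30 min compound pre-incubation; buffer Tris/MgCl2/KCl/DTT/Tween, 4% DMSO final. IC50 from curve fit of % inhibition.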

Experiment [2] deals with ARPE-19 cells stably expressing XBP1 (a.a. 1-376). Description: Cellular XBP1 splicing assay (NanoLuc luciferase, thapsigargin). The experiment is classed as cell-based. The note with it: thapsigargin 150 nM. The method in brief: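 ARPE-19 cells carrying an XBP1(1-376)-NanoLuc splicing reporter were pretreated with compound (10-point ½-log series, 0.117% DMSO) for 30 min, then stressed with 150 nM thapsigargin for 4 h at 37° C. Luminescence was read, and IC50 values came from sigmoidal fits of percent inhibition of control.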

Molecules are shown by their SMILES.

T1 sequence (O75460 468-977 limits assumed): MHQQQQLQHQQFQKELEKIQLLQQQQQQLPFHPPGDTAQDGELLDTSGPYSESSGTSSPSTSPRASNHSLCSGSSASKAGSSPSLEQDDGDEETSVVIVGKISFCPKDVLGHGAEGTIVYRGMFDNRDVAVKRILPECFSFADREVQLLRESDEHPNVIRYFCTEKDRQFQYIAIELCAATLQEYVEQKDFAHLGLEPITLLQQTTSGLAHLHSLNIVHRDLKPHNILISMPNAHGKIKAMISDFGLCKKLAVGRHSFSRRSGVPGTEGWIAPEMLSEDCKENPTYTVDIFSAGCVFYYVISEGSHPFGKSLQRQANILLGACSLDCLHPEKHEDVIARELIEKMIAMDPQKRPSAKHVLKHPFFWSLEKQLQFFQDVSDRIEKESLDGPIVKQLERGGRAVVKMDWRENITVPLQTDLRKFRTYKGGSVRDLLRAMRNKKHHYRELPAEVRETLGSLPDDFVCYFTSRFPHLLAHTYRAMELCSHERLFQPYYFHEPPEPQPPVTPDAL

In the case of `CC(C)n1nc(-c2cc(F)c(NS(=O)(=O)c3ccccc3F)cc2F)c2c(N)ncc(C3=CCC(NC4COC4)CC3)c21` (stereo not drawn) [Compound B60, N-(4-(4-amino-1-isopropyl-7-(4-(oxetan-3-ylamino)cyclohex-1-en-1-yl)-1H-pyrazolo[4,3-c]pyridin-3-yl)-2,5-difluorophenyl)-2-fluorobenzenesulfonamide], the IC50 came to 79 nM in experiment [1] and 240 nM in experiment [2] (Homo sapiens, ARPE-19, 4 h).
As for `COCCN(C)[C@H]1CC[C@H](c2cnc(N)c3c(-c4cc(F)c(NS(=O)(=O)c5ccccc5F)cc4F)nn(C(C)C)c32)CC1` [Compound A36, N-(4-(4-amino-1-isopropyl-7-((1r,4r)-4-((2-methoxyethyl)(methyl)amino)cyclohexyl)-1H-pyrazolo[4,3-c]pyridin-3-yl)-2,5-difluorophenyl)-2-fluorobenzenesulfonamide], the IC50 in experiment [1] was 13 nM; in experiment [2] (Homo sapiens, ARPE-19, 4 h), 18 nM.
On to `CC(F)CNC1CC=C(c2cnc(N)c3c(-c4ccc(NS(=O)(=O)Cc5ccccc5Cl)c(F)c4)nn(C(C)C)c23)CC1` (single isomer, unassigned) [Compound B42, N-(4-(4-amino-7-(4-((2-fluoropropyl)amino)cyclohex-1-en-1-yl)-1-isopropyl-1H-pyrazolo[4,3-c]pyridin-3-yl)-2-fluorophenyl)-1-(2-chlorophenyl)methanesulfonamide], for which the IC50 in experiment [1] is 1.7 nM; in experiment [2] (4 hour), 18 nM.
Consider `COCCNC1CC=C(c2cnc(N)c3c(-c4ccc(NS(=O)(=O)c5ccccc5Cl)c(F)c4)nn(C(C)C)c23)CC1` (single isomer, unassigned) [Compound B52, N-(4-(4-amino-1-isopropyl-7-(4-((2-methoxyethyl)amino)cyclohex-1-en-1-yl)-1H-pyrazolo[4,3-c]pyridin-3-yl)-2-fluorophenyl)-2-chlorobenzenesulfonamide], for which the IC50 in experiment [1] stood at 7.8 nM; in experiment [2] (4 hour) it was 9.8 nM.
`COCCN[C@H]1CC[C@H](c2cnc(N)c3c(-c4ccc(NS(=O)(=O)c5ccccc5F)cc4F)nn(C(C)C)c32)CC1` [Compound A18]: the IC50 turned out to be 12 nM in experiment [1] and 37 nM in experiment [2] (Homo sapiens, ARPE-19, 4 h).
As for `CCn1nc(-c2ccc(NS(=O)(=O)c3ccccc3Cl)c(F)c2)c2c(N)ncc(C3=CCC(NC4COC4)CC3)c21` (single isomer, unassigned) [Compound B61, N-(4-(4-amino-1-ethyl-7-(4-(oxetan-3-ylamino)cyclohex-1-en-1-yl)-1H-pyrazolo[4,3-c]pyridin-3-yl)-2-fluorophenyl)-2-chlorobenzenesulfonamide], the results for the IC50 in experiment [1] and in experiment [2] (4 hour) were 34 nM and 110 nM, respectively.
Turning to `CCn1nc(-c2ccc(NS(=O)(=O)c3cc(Cl)ccc3F)c(F)c2)c2c(N)ncc(C3=CCC(NC4COC4)CC3)c21` (single isomer, unassigned) [Compound B38, N-(4-(4-amino-1-ethyl-7-(4-(oxetan-3-ylamino)cyclohex-1-en-1-yl)-1H-pyrazolo[4,3-c]pyridin-3-yl)-2-fluorophenyl)-5-chloro-2-fluorobenzenesulfonamide], the results for the IC50 in experiment [1] and in experiment [2] (4 hour) were 5.6 nM and 97 nM, respectively.
As to `COCC(C)NC1CC=C(c2cnc(N)c3c(-c4ccc(NS(=O)(=O)Cc5ccccc5Cl)c(F)c4)nn(C(C)C)c23)CC1` (single isomer, unassigned) [Compound B5, N-(4-(4-amino-1-isopropyl-7-(4-((1-methoxypropan-2-yl)amino)cyclohex-1-en-1-yl)-1H-pyrazolo[4,3-c]pyridin-3-yl)-2-fluorophenyl)-1-(2-chlorophenyl)methanesulfonamide], the figures for the IC50 in experiment [1] and in experiment [2] (4 hour) were 1.2 nM and 6.5 nM, respectively.
`COc1ccc(Cl)c(S(=O)(=O)Nc2ccc(-c3nn(C(C)C)c4c(C5=CCC(NC6COC6)CC5)cnc(N)c34)cc2F)c1` (single isomer, unassigned) [Compound B8, N-(4-(4-amino-1-isopropyl-7-(4-(oxetan-3-ylamino)cyclohex-1-en-1-yl)-1H-pyrazolo[4,3-c]pyridin-3-yl)-2-fluorophenyl)-2-chloro-5-methoxybenzenesulfonamide]: the IC50 came to 6.7 nM in experiment [1] and 19 nM in experiment [2] (4 hour).
As for `COCCN[C@H]1CC[C@H](c2cnc(N)c3c(-c4cc(F)c(NS(=O)(=O)c5cccc(F)c5F)cc4F)nn(C(C)C)c32)CC1` [Compound A25, N-(4-(4-amino-1-isopropyl-7-((1r,4r)-4-((2-methoxyethyl)amino)cyclohexyl)-1H-pyrazolo[4,3-c]pyridin-3-yl)-2,5-difluorophenyl)-2,3-difluorobenzenesulfonamide], the IC50 in experiment [1] amounted to 9 nM; in experiment [2] (Homo sapiens, ARPE-19, 4 h), 25 nM.
`COCCN[C@H]1CC[C@H](c2cnc(N)c3c(-c4cc(F)c(NS(=O)(=O)c5cccc(OC)c5)cc4F)nn(C(C)C)c32)CC1` [Compound A11, N-(4-(4-amino-1-isopropyl-7-((1r,4r)-4-((2-methoxyethyl)amino)cyclohexyl)-1H-pyrazolo[4,3-c]pyridin-3-yl)-2,5-difluorophenyl)-3-methoxybenzenesulfonamide]: the IC50 was found to be 8.9 nM in experiment [1] and 15 nM in experiment [2] (Homo sapiens, ARPE-19, 4 h).
Take `CC(C)n1nc(-c2ccc(NS(=O)(=O)Cc3ccccc3Cl)c(F)c2)c2c(N)ncc(C3=CCC(NC4COC4)CC3)c21` (single isomer, unassigned) [Compound B13, N-(4-(4-amino-1-isopropyl-7-(4-(oxetan-3-ylamino)cyclohex-1-en-1-yl)-1H-pyrazolo[4,3-c]pyridin-3-yl)-2-fluorophenyl)-1-(2-chlorophenyl)methanesulfonamide]: the IC50 in experiment [1] came out at 5.2 nM; in experiment [2] (4 hour), 90 nM.
Consider `CC(C)n1nc(-c2ccc(NS(=O)(=O)c3ccccc3F)c(F)c2)c2c(N)ncc(C3=CCC(NC4COC4)CC3)c21` (racemic) [racemic mixture of B58 & B59, N-(4-(4-amino-1-isopropyl-7-(4-(oxetan-3-ylamino)cyclohex-1-en-1-yl)-1H-pyrazolo[4,3-c]pyridin-3-yl)-2-fluorophenyl)-2-fluorobenzenesulfonamide], for which the IC50 was 61 nM in experiment [1] and 92 nM in experiment [2] (Homo sapiens, ARPE-19, 4 h).
As to `CC(C)n1nc(-c2ccc(NS(=O)(=O)c3ccccc3Cl)c(F)c2)c2c(N)ncc(C3=CCC(NC4CC(F)(F)C4)CC3)c21` (single isomer, unassigned) [Compound B50], the IC50 is 5 nM in experiment [1] and 25 nM in experiment [2] (4 hour).
`CC(C)n1nc(-c2ccc(NS(=O)(=O)Cc3ccccc3Cl)c(F)c2)c2c(N)ncc(C3=CCC(NC4CC(F)(F)C4)CC3)c21` (single isomer, unassigned) [Compound B48, N-(4-(4-amino-7-(4-((3,3-difluorocyclobutyl)amino)cyclohex-1-en-1-yl)-1-isopropyl-1H-pyrazolo[4,3-c]pyridin-3-yl)-2-fluorophenyl)-1-(2-chlorophenyl)methanesulfonamide]: the figures for the IC50 in experiment [1] and in experiment [2] (4 hour) were 1.3 nM and 13 nM, respectively.
`CC(C)n1nc(-c2cc(F)c(NS(=O)(=O)Cc3ccccc3Cl)cc2F)c2c(N)ncc(C3=CCC(NC4COC4)CC3)c21` (single isomer, unassigned) [Compound B7, N-(4-(4-amino-1-isopropyl-7-(4-(oxetan-3-ylamino)cyclohex-1-en-1-yl)-1H-pyrazolo[4,3-c]pyridin-3-yl)-2,5-difluorophenyl)-1-(2-chlorophenyl)methanesulfonamide]: the results for the IC50 in experiment [1] and in experiment [2] (4 hour) were 21 nM and 410 nM, respectively.
With `COCCN(CCOC)[C@H]1CC[C@H](c2cnc(N)c3c(-c4cc(F)c(NS(=O)(=O)c5ccccc5F)cc4F)nn(C(C)C)c32)CC1` [Compound A35, N-(4-(4-amino-7-((1r,4r)-4-(bis(2-methoxyethyl)amino)cyclohexyl)-1-isopropyl-1H-pyrazolo[4,3-c]pyridin-3-yl)-2,5-difluorophenyl)-2-fluorobenzenesulfonamide], the IC50 in experiment [1] is 60 nM; in experiment [2] (Homo sapiens, ARPE-19, 4 h), 55 nM.
With `CCn1nc(-c2cc(F)c(NS(=O)(=O)c3ccccc3Cl)cc2F)c2c(N)ncc(C3=CCC(NC4COC4)CC3)c21` (stereo not drawn) [Compound B31, N-(4-(4-amino-1-ethyl-7-(4-(oxetan-3-ylamino)cyclohex-1-en-1-yl)-1H-pyrazolo[4,3-c]pyridin-3-yl)-2,5-difluorophenyl)-2-chlorobenzenesulfonamide], the IC50 was found to be 47 nM in experiment [1] and 130 nM in experiment [2] (Homo sapiens, ARPE-19, 4 h).
Take `COc1ccc(Cl)c(S(=O)(=O)Nc2ccc(-c3nn(C(C)C)c4c(C5=CCC(NC6COC6)CC5)cnc(N)c34)cc2F)c1` (single isomer, unassigned) [Compound B9, N-(4-(4-amino-1-isopropyl-7-(4-(oxetan-3-ylamino)cyclohex-1-en-1-yl)-1H-pyrazolo[4,3-c]pyridin-3-yl)-2-fluorophenyl)-2-chloro-5-methoxybenzenesulfonamide]: the IC50 was 70 nM in experiment [1] and 150 nM in experiment [2] (4 hour).
As for `COCCN(CCOC)[C@H]1CC[C@H](c2cnc(N)c3c(-c4cc(F)c(NS(=O)(=O)c5cccc(C(F)(F)F)c5)cc4F)nn(C(C)C)c32)CC1` [Compound A29, N-(4-(4-amino-7-((1r,4r)-4-(bis(2-methoxyethyl)amino)cyclohexyl)-1-isopropyl-1H-pyrazolo[4,3-c]pyridin-3-yl)-2,5-difluorophenyl)-3-(trifluoromethyl)benzenesulfonamide], the IC50 in experiment [1] worked out at 32 nM; in experiment [2] (Homo sapiens, ARPE-19, 4 h), 500 nM.
On to `CC(C)n1nc(-c2ccc(NS(=O)(=O)Cc3ccccc3F)c(F)c2)c2c(N)ncc(C3=CCC(NC4COC4)CC3)c21` (single isomer, unassigned) [Compound B1, N-(4-(4-amino-1-isopropyl-7-(4-(oxetan-3-ylamino)cyclohex-1-en-1-yl)-1H-pyrazolo[4,3-c]pyridin-3-yl)-2-fluorophenyl)-1-(2-fluorophenyl)methanesulfonamide], for which the results for the IC50 in experiment [1] and in experiment [2] (4 hour) were 2.4 nM and 30 nM, respectively.

The values above are taken from patent US20220153734A1, “Pyrazolopyridine Compounds For IRE1 Inhibition” (Optikira, LLC, priority 2019, published 2022).
